Test results taken from patent US20090036441A1, “Indole Derivatives With Antitumor Activity” (Cell Therapeutics Europe S.R.L., priority 2004, published 2009).

Tests used:
[1] = test system: secreted VEGF (Hep3B-VEGFLuciferase cells); experiment: Secreted VEGF ELISA test in Hep3B-VEGFLuciferase cells, deferoxamine-induced hypoxia; type: cell-based; settings: Homo sapiens, supernatant, deferoxamine about 100 μM, 18-20 hours, 50% reduction of secreted VEGF
Experimental: (§1) The compounds having inhibitory activity in the Hif-1α/p300 assay described above were evaluated using a cellular test on genetically modified human hepatocarcinoma Hep3B cells (Hep3B-VEGFLuciferase) in order to stably express a vector in which the Open Reading Frame of firefly Luciferase was under the control of the rat VEGF gene promoter.
(§2) The Hep-3B-VEGFLuciferase cell line was obtained according to the following procedure.
(§3) Human hepatocarcinoma cells Hep-3B (ATCC reference No. HB-8064) were seeded onto 6 wells plates at a concentration of 2.5×10^5 cells/well in 2 ml DMEM/10% FCS and the following day were transfected using Fugene 6 (Roche Biochemicals®). In each well, the transfection mixtures contained 6 μl of the transfection reagent Fugene 6, 1 μg of the pxp2-VEGF-luciferase reporter plasmid (VEGF rat promoter, NCBI GenBank No. of accession U22373, Levy et al., J. Biol. Chem. 270 (22), 13333-13340. 1995), and 10 ng of pcDNA3.1(+)plasmid (INVITROGEN) which makes cells resistant to neomycin. Transfection was carried out according to the manufacturer's instructions.
(§4) A suitable cell population (phenotypically resistant to neomycin) was selected by means of a cloning approach based on the “dilution limit” procedure (Sambrook J., Fritsch E. F. and Maniatis T. (1989) Molecular Cloning, A Laboratory Manual; Cold Spring Harbor Laboratories). The subsequent assays for Luciferase expression/activity “Luciferase assay” and for the quantification of secreted VEGF in the supernatant “ELISA secreted VEGF test”) were carried out with the stably transfected selected cells.
(§5) The following experimental protocol was used:
(§6) Day 1. Hep-3B-VEGF Luciferase cells were seeded onto 96-wells “blank” plates (a product by Greiner) at a density of 1×10^4 cells/well/125 μl of medium, then left to adhere overnight in thermostat (37° C./5% CO2).
(§7) Day 2. 75 μl of “3.2× working solutions” of compound (previously prepared in culture medium so that the DMSO concentration is 1.6% v/v) were added to the cells (partial volume/well=200 μl, partial concentration of compound=1.2×, partial concentration of DMSO=0.6%). After 1 hour incubation in thermostat, hypoxia was induced chemically by addition of 40 μl/well of a 6× (600 μM) stock solution of deferoxamine (final volume/well=240 μl, final concentration of compound=1×, final concentration of DMSO=0.5%, final concentration of deferoxamine=1×≈100 μM). The plates were then thermostated for further 18-20 hours.
(§8) Day 3. The “Luciferase assay” and the “secreted VEGF ELISA test” were carried out as follows.
“Secreted VEGF ELISA Test”
Quantification of secreted VEGF was performed using the kit “DuoSet Elisa Development System human VEGF” kit (R&D Systems). 100 μl/well of the supernatant from the “blank” 96 well-plates with the cells of the Hep3B/VEGF Luciferase clone were transferred into transparent 96-well plates of (Maxisorp) and assayed according to the indications of the kit manufacturer.
(§9) IC50 values (concentration of the compound that causes 50% inhibition of the luciferase signal or 50% reduction of secreted VEGF) for some compounds of the invention are reported in table 2: […]

[2] = test system: VEGF promoter (rat VEGF gene promoter, Hep3B-VEGFLuciferase cells); experiment: Luciferase assay in Hep3B-VEGFLuciferase cells, deferoxamine-induced hypoxia; type: cell-based; settings: Homo sapiens, deferoxamine about 100 μM, 18-20 hours, 50% inhibition of the luciferase signal
Experimental: as §1
Hif-1 Induction using deferoxamine (which induces hypoxia) induces luciferase transcription through activation of the VEGF promoter, which in turn causes an increase in luciferase activity, which can be measured with a commercially available kit. The compounds interfering with the Hif-1α/p300 complex inhibit Hif-dependent luciferase activation, resulting in a reduction of luciferase activity. This assay therefore allows to evaluate the activity of the compounds towards the VEGF promoter, which is essential to VEGF production and the subsequent tumor angiogenesis.
as §2, §3, §4, §5, §6, §7, §8
Quantification of the expression of the Luciferase reporter gene was performed by means of the Bright Glo Reagent (Promega). After removing the supernatant and washing once with PBS, 40 μl/well of Bright Glo Reagent were added to blank 96-well plates with Hep3B/VEGF-Luciferase cells. The expression levels of the reporter gene were determined by reading the plates with a luminometer.
as §9

[3] = target: T1, Biot-Hif-1α^786-826/GST-p300^323/423 (Homo sapiens, UniProt Q09472); experiment: Primary biochemical assay (DELFIA fluorescence) for inhibition of the Hif-1α/p300 interaction; type: binding; settings: 10 concentrations from 90 μM to 0.178 μM, 1 h at 25° C.
T1 construct: the p300 region ranging from amino acids 323 to 423; fragment corresponding to C-terminal 786-826 amino acids; host or cells: E. coli BL21 (DE3), vector pGEX-4T-1
Experimental: Primary Biochemical Assay for the Inhibition of Biot-Hif-1α^786-826/GST-p300^323/423
The compounds were evaluated for their ability to inhibit the interaction between Hif-1α and p300 using a fluorescence assay (DELFIA™). The procedure described by Freedman S J at al., Nature Structural Biology 2003, 10 (7), 504-512 was suitably modified.
The human biotinylated Hif-1α fragment corresponding to C-terminal 786-826 amino acids (Biotinylated Hif-1α^786-826) was obtained from AnaSpec Inc (San Jose, Calif., USA) and used without further purifications.
A construct expressing the GST-p300^323-423 fragment was transformed in the BL21 (DE3) strain of E. coli. Said construct was obtained by cloning in the expression vector pGEX-4T-1 (Amersham No. 27-45-80-01) the DNA sequence which encodes for the p300 region ranging from amino acids 323 to 423; the DNA sequence was obtained by PCR (Polymerase Chain Reaction). The protein region was induced with 1 mM isopropyl-1-tio-β-D-galactopyranoside (IPTG). The bacteria were lysed by sonication in the presence of a suitable buffer (50 mM Tris*HCl pH 8.00, 100 mM NaCl, 0.1 mM ZnSO4, 1 mM DTT, 0.1 mg/ml lysozyme and a tablet of Complete EDTA-free Protease Inhibitor Cocktail Tablets (Roche, catalogue number 1 873 580)) and the GST fusion protein present in the soluble fraction was purified on a Glutathione-Sepharose 4B resin (Amersham Biosciences; no. 27-4574-01). The protein final concentration was determined according to Bradford with the Biorad assay (Bradford M., Anal. Biochem., 72, 248, (1976)). The purity of the sample was evaluated by SDS-PAGE. Samples were stored at −80° C. in 50% glycerol.
The assay was carried out using NUNC Maxisorp 96 wells plates as follows.
C96 NUNC Maxisorp plates (from Nunc, product No. 446612) were incubated overnight with streptavidin (Sigma; product No. S 4762) to a final concentration of 1 μg/ml in PBS buffer (Phosphate Buffered Saline 10 mM sodium phosphate, 150 mM sodium chloride pH 7.4). Each well was subsequently washed with 3×300 μl of TBST buffer (50 mM Tris*HCl pH 8.0, 150 mM NaCl, 0.05% (v/v) Tween 20). Each well was then added with 100 μl of a 10 nM solution of biotinylated Hif-1α^786-826 in TBSB (50 mM Tris-HCl pH 8.0, 150 mM NaCl, 5% (w/v) BSA (Sigma, product No. A 2153)) and incubated for 1 h at 25° C. In the last row of each plate, only the TBSB buffer was added. Each well was subsequently washed three times with 300 μl of TBST buffer. The thus prepared plate represented the assay plate.
Separately, the plate (daughter plate) containing in each well 10 μl of each test compound dissolved in DMSO to a concentration of 10 μM was prepared. This plate was added with 100 μl of a 111 pM solution of GST-p300^323-423 diluted in the incubation buffer (TBSB added with 0.1% (v/v) Tween 20, 0.5 mM DTT, 10 μM ZnCl2) and the whole was mixed. 100 μl of the mixture contained in the daughter plate were immediately transferred to the assay plate.
Each daughter plate was prepared with 80 different compounds at a 10 μM concentration, safe for the two last well rows, wherein each well was added with 10 μl of DMSO. These two rows represented the positive (row 11, +Hif-1) and negative (row 12, −Hif-1) controls.
After incubation for 1 h at 25° C., each well was washed with 3×300 μl of TBST buffer (50 mM Tris-HCl pH 8.0. 150 mM NaCl, 0.05% (v/v) Tween 20). Each well was then added with 60.8 ng of an europium-labelled anti-GST antibody (DELFIA Eu-N1 labeled; Perkin Elmer; product no. A D 0251) dissolved in 100 μl of TBST buffer containing 10 μM ZnCl2. After incubation for 1 h at room temperature, each well was washed with 3×300 μl of TBST buffer, then 100 μl of signal amplification solution (Enhancement Solution, Perkin Elmer product No. 1244-105) were added.
The plates were then read using a FUSION alpha-FP-HT reader (Perkin Elmer) in fluorescence mode for time resolution.
The activity of the compounds was calculated as follows. […]

T1 sequence (Q09472 323-423): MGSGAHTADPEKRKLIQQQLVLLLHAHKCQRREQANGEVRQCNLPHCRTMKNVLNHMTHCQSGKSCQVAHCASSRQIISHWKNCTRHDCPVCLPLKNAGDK

IC50 [1] | IC50 [2] | IC50 [3] | Compound
14.5 µM | 1.08 µM | 7.3 µM | CCOC(=O)c1c2c(n(Cc3ccccc3)c1C)C(=O)C(=O)c1ccc(Br)cc1-2 [12(c), Ethyl 8-bromo-2-methyl-3-benzyl-4,5-dioxo-4,5-dihydro-3H-benzo[e]indole-1-carboxylate]
4.8 µM | 1.1 µM | 11 µM | CCOC(=O)c1c2c(n(C)c1CN1CCOCC1)C(=O)C(=O)c1ccc(Br)cc1-2 [Example 4, Ethyl 8-bromo-3-methyl-2-(morpholin-4′-yl)methyl-4,5-dioxo-4,5-dihydro-3H-benzo[e]indole-1-carboxylate]
1.2 µM | 0.26 µM | 1.5 µM | CCOC(=O)c1c2c(n(C)c1CN(C)C)C(=O)C(=O)c1ccc(Br)cc1-2 [Example 5, Ethyl 8-bromo-2-dimethylaminomethyl-3-methyl-4,5-dioxo-4,5-dihydro-3H-benzo[e]indole-1-carboxylate]
> 12.5 µM | 0.6 µM | 9.6 µM | CCOC(=O)c1c2c(n(CC(N)=O)c1C)C(=O)C(=O)c1ccc(Br)cc1-2 [Example 9, Ethyl 8-bromo-3-carbamoylmethyl-2-methyl-4,5-dioxo-4,5-dihydro-3H-benzo[e]indole-1-carboxylate]
0.3 µM | 0.3 µM | 9.1 µM | CCOC(=O)c1c2c(n(C)c1CNC(C)C)C(=O)C(=O)c1ccc(Br)cc1-2 [Example 6, Ethyl 8-bromo-2-isopropylaminomethyl-3-methyl-4,5-dioxo-4,5-dihydro-3H-benzo[e]indole-1-carboxylate]
2.03 µM | 0.32 µM | 13.3 µM | CCOC(=O)c1c2c(n(C)c1CN(CC)CC)C(=O)C(=O)c1ccc(Br)cc1-2 [12(b), Ethyl 8-bromo-2-diethylaminomethyl-3-methyl-4,5-dioxo-4,5-dihydro-3H-benzo[e]indole-1-carboxylate]
5.78 µM | 0.45 µM | 13.2 µM | CCOC(=O)c1c(C)[nH]c2c1-c1cc(Br)ccc1C(=O)C2=O [Example 1, Ethyl 8-bromo-2-methyl-4,5-dioxo-4,5-dihydro-3H-benzo[e]indole-1-carboxylate]
10.7 µM | 0.47 µM | 3.3 µM | CCOC(=O)c1c2c(n(C)c1C)C(=O)C(=O)c1ccc(Br)cc1-2 [Example 3, Ethyl 8-bromo-2,3-dimethyl-4,5-dioxo-4,5-dihydro-3H-benzo[e]indole-1-carboxylate]
> 12.5 µM | > 12.5 µM | 32.9 µM | CCOC(=O)c1c2c(n(CC(=O)O)c1C)C(=O)C(=O)c1ccc(Br)cc1-2 [Example 8, Ethyl 8-bromo-3-carboxymethyl-2-methyl-4,5-dioxo-4,5-dihydro-3H-benzo[e]indole-1-carboxylate]
2.03 µM | 0.32 µM | 14.2 µM | CCOC(=O)c1c2c(n(C)c1CO)C(=O)C(=O)c1ccc(Br)cc1-2 [12(a), Ethyl 8-bromo-2-hydroxymethyl-3-methyl-4,5-dioxo-4,5-dihydro-3H-benzo[e]indole-1-carboxylate]

Compound | IC50 [1] | IC50 [2] | IC50 [3]
CCOC(=O)c1c2c(n(CC(=O)OC(C)(C)C)c1C)C(=O)C(=O)c1ccc(Br)cc1-2 [Example 7, Ethyl 8-bromo-3-tert-butoxycarbonylmethyl-2-methyl-4,5-dioxo-4,5-dihydro-3H-benzo[e]indole-1-carboxylate] | 9.3 µM | 1.6 µM | 14.9 µM
